{"source": "patent US8492387B2", "about": "“2-aminoimidazole beta-secretase inhibitors for the treatment of alzheimer's disease” (Merck, Sharp & Dohme, Corp., priority 2008, dated 2013)", "data": [{"molecular_target": "BACE 1 (beta-secretase enzyme) (Homo sapiens (Human), UniProt P56817)", "sequence (P56817 46-457)": "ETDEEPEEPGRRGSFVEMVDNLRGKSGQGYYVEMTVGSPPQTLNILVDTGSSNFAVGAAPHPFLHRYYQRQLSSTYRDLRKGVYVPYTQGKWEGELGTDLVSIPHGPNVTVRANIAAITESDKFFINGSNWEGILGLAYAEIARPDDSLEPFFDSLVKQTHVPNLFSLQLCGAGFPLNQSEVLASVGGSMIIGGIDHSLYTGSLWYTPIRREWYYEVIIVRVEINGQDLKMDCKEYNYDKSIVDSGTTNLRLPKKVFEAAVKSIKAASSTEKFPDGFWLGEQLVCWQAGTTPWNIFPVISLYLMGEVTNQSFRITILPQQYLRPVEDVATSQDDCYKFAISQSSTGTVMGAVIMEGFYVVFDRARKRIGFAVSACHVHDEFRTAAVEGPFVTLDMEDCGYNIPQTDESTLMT", "test": "ECL Assay (homogeneous end point electrochemiluminescence assay with biotinylated BACE substrate)", "type": "biochemical", "settings": "soluble human enzyme, pH 6.5, rt", "procedure": "Enzyme inhibition is determined as follows.\nECL Assay: A homogeneous end point electrochemiluminescence (ECL) assay is performed using a biotinylated BACE substrate. The Km of the substrate is approximated at 50 μM. A typical reaction contains approximately 0.6 nM enzyme, 0.25 μM of the substrate, and buffer (50 mM Pipes, pH 6.5, 0.1 mg/ml BSA, 0.2% CHAPS, 15 mM EDTA and 1 mM deferoxamine) in a total reaction volume of 100 μl. The reaction proceeds for 1-2 hrs and is then stopped by the addition of 150 μL of a quench cocktail solution ([…], pH 8.0, 50 μL INC buffer (2% BSA, 0.2% Tween-20 and 0.05% sodium azide diluted in phosphate buffered saline (PBS) plus 75 μL, PBS), containing streptavadin coated magnetic beads and ruthenylated antibody which specifically recognizes the C-terminal residue of the product. The samples are subjected to M-384 (Igen Inc., Gaithersburg, Md.) analysis. Under these conditions, less than 10% of substrate is processed by BACE 1. The enzyme used in these studies is soluble (transmembrane domain and cytoplasmic extension excluded) human protein produced in a baculovirus expression system. To measure the inhibitory potency for compounds, 10 concentrations of inhibitors are prepared starting from 200 μM with three fold series dilution. Solutions of the inhibitor in DMSO are included in the reaction mixture (final DMSO concentration is 10%). All experiments are conducted at rt using the standard reaction conditions described above. To determine the IC50 of the compound, a four parameter equation is used for curve fitting. The errors in reproducing the dissociation constants are typically less than two-fold.", "units": {"IC50": "µM"}, "values": [{"smiles": "COc1ccc([C@H](Cc2ccc(C(F)(F)F)cc2)c2nc(N)[nH]c2C(O)c2ccccc2)cc1", "note": "(stereo partly drawn) [Example 2, (2-amino-4-{(1S)-1-(4-methoxyphenyl)-2-[4-(trifluoromethyl)phenyl]ethyl}-1H-imidazole-5-yl) (phenyl)methanol]", "IC50": 5}, {"smiles": "Cn1cc(C2(Cc3ccccc3)CCc3ccccc32)nc1N", "note": "(centres unmarked) [Example 3, 4-(1-benzyl-2,3-dihydro-1H-inden-1-yl)-1-methyl-1H-imidazol-2-amine]", "IC50": 12}, {"smiles": "COc1ccc(C(Cc2cccc(-c3ccc(C(F)(F)F)cc3Cl)c2)c2cn(C)c(N)n2)cc1", "note": "(centres unmarked) [Example 34, 4-[2-[2′-chloro-4′-(trifluoromethyl)biphenyl-3-yl]-1-(4-methoxyphenyl)ethyl]-1-methyl-1H-imidazol-2-amine]", "IC50": 11}, {"smiles": "COc1ccc(C2(c3cn(C)c(N)n3)CCCCC2)cc1", "note": "[Example 41, 4-[1-(4-methoxyphenyl)cyclohexyl]-1-methyl-1H-imidazol-2-amine]", "IC50": 27}, {"smiles": "COc1ccc(C(Cc2ccc(-c3ccc(O)nc3)cc2)c2cn(C)c(N)n2)cc1", "note": "(centres unmarked) [Example 55, 5-{4-[2-(2-amino-1-methyl-1H-imidazol-4-yl)-2-(4-methoxyphenyl)ethyl]phenyl}pyridin-2-ol]", "IC50": 17}, {"smiles": "COc1ccc2c(c1)CCC2(Cc1cc([N+](=O)[O-])ccc1OC)c1cn(C)c(N)n1", "note": "(centres unmarked) [Example 111, 4-[5-methoxy-1-(2-methoxy-5-nitrobenzyl)-2,3-dihydro-1H-inden-1-yl]-1-methyl-1H-imidazol-2-amine]", "IC50": 3.2}, {"smiles": "COc1ccc2c(c1)CCC2(Cc1ccc(C(F)(F)F)nc1)c1cn(Cc2ccccc2)c(N)n1", "note": "(centres unmarked) [Example 114, 1-benzyl-4-(5-methoxy-1-{[6-(trifluoromethyl)pyridin-3-yl]methyl}-2,3-dihydro-1H-inden-1-yl)-1H-imidazol-2-amine]", "IC50": 0.063}, {"smiles": "COc1ccc2c(c1)CCC2(Cc1ccc(C(F)(F)F)nc1)c1cn(CCCO)c(N)n1", "note": "(centres unmarked) [Example 115, 3-[2-amino-4-(5-methoxy-1-{[6-(trifluoromethyl)pyridin-3-yl]methyl}-2,3-dihydro-1H-inden-1-yl)-1H-imidazol-1-yl]propan-1-ol]", "IC50": 3.3}]}]}
